Test results: US4690923A, “2-(Perhydro-1,4-diazino)-pyrimido(5,4-D)-pyrimidines, pharmaceutical compositions and use” (Karl Thomae GmbH, priority 1979, dated 1987)

What was measured:
thrombocytes = experiment: Collagen-induced aggregation of thrombocytes in human platelet-rich plasma (Born and Cross); type: cell-based; conditions: 10 min, platelet-rich plasma of healthy human subjects, incubated 10 minutes at 37° C. before collagen, determined graphically, read-out: EC50 (dosage producing 50% inhibition of the thrombocyte aggregation)
Protocol: The aggregation of thrombocytes was measured according to the method of BORN and CROSS [J. Physiol. 170, 397 (1964)] in the platelet-rich plasma of healthy human test subjects. To inhibit coagulation, the blood was admixed with a 3.14% sodium citrate solution in a volumetric ration of 1:10.
The decrease in optical density was measured and recorded photometrically after the addition of the aggreation-inducing substance. From the angle of inclination of the density curve, the rate of aggregation was estimated (Vmax). The optical density was taken as the point on the curve where the most light was transmitted (O.D.).
Small doses of collagen were chosen, but sufficient to give irreversible aggregation. (Commercial collagen of Hormonchemie, Munich, Germany.)
Before the addition of collagen, the plasma was incubated with the substance for 10 minutes at 37° C.,
The dosage of the test compound which produced a 50% inhibition of the thrombocyte aggregation was determined graphically (EC50).

mice = experiment: Acute toxicity after oral administration of a single dose; type: in vivo; conditions: mouse, oral single dose 250 mg/kg, observation time 7 days
Protocol: (§1) The acute toxicity was determined in groups of 5 mice each after oral administration of a single dose of 250 mg/kg (observation time: 7 days). The test compound was suspended in 2% methyl cellulose, and after addition of some water, each substance was administered to the conscious animals by means of a stomach tube.

[1] = as above; type: in vivo; conditions: in vivo; mouse, oral single dose 250 mg/kg, 5 mice each, observation time 7 days; read-out: Acute toxicity per os
Protocol: as §1

Row | Structure (SMILES) | EC50 (thrombocytes) [nM] | animals died (mice) | LD50 at 168 h [1] [mg/kg]
1 | CCSc1ncnc2c(N3CC[S+]([O-])CC3)nc(N3CCNCC3)nc12 [B, 8-Ethylthio-4-(1-oxido-thiomorpholino)-2-piperazino-pyrimido-[5,4-d]-pyrimidine] | < 10 |  | 
2 | CSc1ncnc2c(N3CC[S+]([O-])CC3)nc(N3CCNCC3)nc12 [Compound A, 8-Methylthio-4-(1-oxido-thiomorpholino)-2-piperazino-pyrimido-[5,4-d]-pyrimidine] | 1 |  | 
3 | [O-][S+]1CCN(c2nc(N3CCNCC3)nc3c(OCc4ccccc4)ncnc23)CC1 [Q, 8-Benzyloxy-4-(1-oxido-thiomorpholino)-2-piperazino-pyrimido-[5,4-d]-pyrimidine] | 3.6 | 0 out of 5 animals | > 250
4 | [O-][S+]1CCN(c2nc(N3CCNCC3)nc3c(SCc4ccccc4)ncnc23)CC1 [D, 8-Benzylthio-4-(1-oxido-thiomorpholino)-2-piperazino-pyrimido-[5,4-d]-pyrimidine] | 30 | 0 out of 5 animals | > 250
5 | CN1CCN(c2nc(N3CC[S+]([O-])CC3)c3ncnc(SCc4ccccc4)c3n2)CC1 [K, 8-Benzylthio-2-(N-methyl-piperazino)-4-(1-oxido-thio-morpholino)-pyrimido-[5,4-d]-pyrimidine] | 350 | 0 out of 5 animals | > 250
6 | [O-][S+]1CCN(c2nc(N3CCNCC3)nc3c(Nc4ccccc4)ncnc23)CC1 [V, 8-Anilino-4-(1-oxido-thiomorpholino)-2-piperazino-pyrimido-[5,4-d]-pyrimidine] | 30 | 1 out of 5 animals | > 250
7 | [O-][S+]1CCN(c2nc(N3CCNCC3)nc3c(SCCO)ncnc23)CC1 [O, 8-(2-Hydroxyethyl-thio)-4-(1-oxido-thiomorpholino)-2-piperazino-pyrimido-[5,4-d]-pyrimidine] | 28 | 0 out of 5 animals | > 250
8 | c1ccc(CSc2ncnc3c(N4CCOCC4)nc(N4CCNCC4)nc23)cc1 [C, 8-Benzylthio-4-morpholino-2-piperazino-pyrimido-[5,4-d]-pyrimidine] | 8.5 | 0 out of 5 animals | > 250
9 | c1ccc(Sc2ncnc3c(N4CCSCC4)nc(N4CCNCC4)nc23)cc1 [P, 8-Phenylthio-2-piperazino-4-thiomorpholino-pyrimido-[5,4-d]-pyrimidine] | ~100 |  | 
10 | OCCOc1ncnc2c(N3CCOCC3)nc(N3CCNCC3)nc12 [N, 8-(2-Hydroxyethoxy)-4-morpholino-2-piperazino-pyrimido-[5,4-d]-pyrimidine] | 40 |  | 
11 | Clc1ccc(CSc2ncnc3c(N4CCOCC4)nc(N4CCNCC4)nc23)c(Cl)c1 [L, 8-(2,4-Dichlorobenzyl-thio)-4-morpholino-2-piperazino-pyrimido-[5,4-d]-pyrimidine] | 8 | 0 out of 5 animals | > 250
12 | O=C(c1ccco1)N1CCN(c2nc(N3CCOCC3)c3ncnc(SCc4ccccc4)c3n2)CC1 [H, 8-Benzylthio-2-[N-(2-furoyl)-piperazino]-4-morpholino-pyrimido-[5,4-d]-pyrimidine] | 100 | 0 out of 5 animals | > 250
13 | [O-][S+]1CCN(c2nc(N3CCNCC3)nc3c(NCc4ccccc4)ncnc23)CC1 [R, 8-Benzylamino-4-(1-oxido-thiomorpholino)-2-piperazino-pyrimido-[5,4-d]-pyrimidine] | 4.2 | 0 out of 5 animals | > 250
14 | [O-][S+]1CCN(c2nc(N3CCNCC3)nc3c(SCCc4ccccc4)ncnc23)CC1 [Compound E, 4-(1-Oxido-thiomorpholino)-8-phenethylthio-2-piperazino-pyrimido-[5,4-d]-pyrimidine] | 22 | 0 out of 5 animals | > 250
15 | [O-][S+]1CCN(c2nc(N3CCN(CCO)CC3)nc3c(SCc4ccccc4)ncnc23)CC1 [F, 8-Benzylthio-2-[N-(2-hydroxyethyl)-piperazino]-4-(1-oxido-thiomorpholino)-pyrimido-[5,4-d]-pyrimidine] | 380 | 0 out of 5 animals | > 250
16 | c1ccc(CNc2ncnc3c(N4CCSCC4)nc(N4CCNCC4)nc23)cc1 [T, 8-Benzylamino-2-piperazino-4-thiomorpholino-pyrimido-[5,4-d]-pyrimidine] | 250 | 0 out of 5 animals | > 250
17 | CN(Cc1ccccc1)c1ncnc2c(N3CC[S+]([O-])CC3)nc(N3CCNCC3)nc12 [S, 8-(N-Benzyl-methylamino)-4-(1-oxido-thiomorpholino)-2-piperazino-pyrimido-[5,4-d]-pyrimidine] | 3 | 0 out of 5 animals | > 250
18 | COc1ccc(CSc2ncnc3c(N4CCOCC4)nc(N4CCNCC4)nc23)cc1OC [I, 8-(3,4-dimethoxybenzyl-thio)-4-morpholino-2-piperazino-pyrimido-[5,4-d]-pyrimidine] | 10 |  | 
19 | CCN(CC)CCSc1ncnc2c(N3CC[S+]([O-])CC3)nc(N3CCNCC3)nc12 [G, 8-(2-Diethylaminoethyl-thio)-4-(1-oxido-thiomorpholino)-2-piperazino-pyrimido-[5,4-d]-pyrimidine] | 20 | 0 out of 5 animals | > 250
20 | CN(Cc1ccccc1)c1ncnc2c(N3CC[S+]([O-])CC3)nc(N3CCN(C=O)CC3)nc12 [U, 8-(N-Benzyl-methylamino)-2-(N-formyl-piperazino)-4-(1-oxido-thiomorpholino)-pyrimido-[5,4-d]-pyrimidine] | 290 | 1 out of 5 animals | > 250
21 | O=CN1CCN(c2nc(N3CC[S+]([O-])CC3)c3ncnc(SCc4ccccc4)c3n2)CC1 [M, 8-Benzylthio-2-(N-formyl-piperazino)-4-(1-oxido-thiomorpholino)-pyrimido-[5,4-d]-pyrimidine] | 15 | 0 out of 5 animals | > 250
